Patent publication US12516038B2, “Inhibitors of antigen presentation by HLA-DR” (Janssen Pharmaceutica NV, priority 2020, dated 2026)

Key:
[1] = tested on: human peripheral blood CD4+ helper T cells; assay: Pan-CD4+ T cell activation (off-target assay); format: cell-based; conditions: anti-CD3/anti-CD28 stimulation, IL-2 production by ELISA
Procedure, shortened: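 IL-2 secretion was measured by ELISA of culture supernatant after 24 h of TCR stimulation. Stimulation used anti-CD3 coated at 1 μg/mL and 1 μg/mL soluble anti-CD28 on human blood CD4+ helper T cells without HLA-DR-expressing APCs, with compound or vehicle present.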

[2] = target: HLA-DRB1*0401 (Homo sapiens (Human), UniProt P01903+P01911, A100K/A169T/DEL228-266/F76Y/I96L/K127E/L162R/M171V/N62H/P40V/Q125Y/R42H/S133A/S149N/S66Y/V115G/V209L/W38E); assay: HLA-DR4 HTRF assay; format: binding; conditions: inhibition of loading of Alexa Fluor 647-labeled Cit-CII peptide onto HLA-DR4 (CLIP cleaved)
Procedure, shortened: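 HLA-DRB1*04:01 construct (α/β fused to human Fc, CLIP pre-cleaved by HRV3C overnight at 4° C) at 3 nM was preincubated 45 min with compound and 1 nM anti-Fc-Tb donor, then 40 nM Alexa647-Cit-CII1236-1249 peptide added. After 90 min at 37° C, the 665/620 nm HTRF ratio gave % inhibition; IC50 by nonlinear regression.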

[3] = tested on: HLA-DR4 restricted mouse T cell hybridoma line (DR4.CII.36.8) with HLA-DRB1*04:01-expressing Boleth cells; assay: HLA-DR4-restricted peptide-specific T cell-based assay (hybridoma assay); conditions: 6 h, inhibition of IL-2 production, CII259-273 peptide presented by Boleth cells
Procedure, shortened: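 IC50 values derive from 4-parameter logistic fits of IL-2 AlphaLISA signal over 8-point duplicate titrations. Compound and HLA-DRB1*04:01 Boleth APCs were preincubated 1 h, 37° C., before adding CII259-273-restricted DR4.CII.36.8 hybridoma cells with peptide for 6 h at 37° C., in DMEM/1% FCS.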

SMILES	IC50 ([1]; Homo sapiens, T-cell, 24 h) [nM]	IC50 [2] [nM]	IC50 ([3]; Mus musculus, T-cell) [nM]	IC50 ([1]; 24 hrs) [nM]	IC50 [3] [nM]
Cc1c(O[C@@H](c2ccc(C(N)=O)cc2)c2ccc(Cl)cn2)ccc2c1OCCC2=O (single isomer, unassigned) [Example 62b, (*S)-4-((5-chloropyridin-2-yl)((8-methyl-4-oxochroman-7-yl)oxy)methyl)benzamide]	2700	1400	1800	–	–
Cc1c(O[C@@H](c2ccc(Cl)cc2)c2ccc(C(N)=O)cn2)ccc2c1OCCC2=O (single isomer, unassigned) [Example 63b, (*S)-6-((4-chlorophenyl)((8-methyl-4-oxochroman-7-yl)oxy)methyl)nicotinamide]	4700	1500	1300	–	–
Cc1c(O[C@H](c2ccc(Cl)cc2)c2ccc(C(N)=O)nc2)ccc2c1OCCC2=O (single isomer, unassigned) [Example 64a, (*R)-5-((4-chlorophenyl)((8-methyl-4-oxochroman-7-yl)oxy)methyl)picolinamide]	2000	1700	6000	–	–
Cc1c(O[C@@H](c2ccc(Cl)cc2)c2ccc(C(N)=O)nc2)ccc2c1OCCC2=O (single isomer, unassigned) [Example 64b, (*S)-5-((4-chlorophenyl)((8-methyl-4-oxochroman-7-yl)oxy)methyl)picolinamide]	> 15000	1800	4800	–	–
Cc1c(O[C@@H](c2ccc(C(N)=O)cc2)c2cccc[n+]2[O-])ccc2c1OCCC2=O (single isomer, unassigned) [Example 65b, (*S)-2-((4-carbamoylphenyl)((8-methyl-4-oxochroman-7-yl)oxy)methyl)pyridine 1-oxide]	–	28000	–	15000	2000
Cc1c(O[C@@H](c2ccc(F)cc2)c2ccc(C(N)=O)cc2)ccc2c1OCCC2=O (single isomer, unassigned) [Example 66a, (*R)-4-((4-Fluorophenyl)((8-methyl-4-oxochroman-7-yl)oxy)methyl)benzamide]	4700	2700	7800	–	–
Cc1c(O[C@H](c2ccc(C(N)=O)cc2)c2cccc(F)c2)ccc2c1OCCC2=O (single isomer, unassigned) [Example 67a, (*R)-4-((3-Fluorophenyl)((8-methyl-4-oxochroman-7-yl)oxy)methyl)benzamide]	15000	3100	2700	–	–
Cc1c(O[C@H](c2ccc(C(N)=O)cc2)c2ccccc2F)ccc2c1OCCC2=O (single isomer, unassigned) [Example 68a, (*R)-4-((2-Fluorophenyl)((8-methyl-4-oxochroman-7-yl)oxy)methyl)benzamide]	4700	1500	5600	–	–
Cc1c(O[C@H](c2ccccc2)c2ccc(C(N)=O)cc2)ccc2c1OCCC2=O (single isomer, unassigned) [Example 69a, (*R)-4-(((8-Methyl-4-oxochroman-7-yl)oxy)(phenyl)methyl)benzamide]	6100	2100	2200	–	–
Cc1c(O[C@H](c2ccccc2)c2ccc(C(=O)O)cc2)ccc2c1OCCC2=O (single isomer, unassigned) [Example 70a, (*R)-4-(((8-methyl-4-oxochroman-7-yl)oxy)(phenyl)methyl)benzoic acid]	4700	1300	7100	–	–
Cc1c(O[C@@H](c2ccccc2)c2ccc(C(=O)O)cc2)ccc2c1OCCC2=O (single isomer, unassigned) [Example 70b, (*S)-4-(((8-methyl-4-oxochroman-7-yl)oxy)(phenyl)methyl)benzoic acid]	9900	1500	4800	–	–
Cc1c(O[C@H](c2ccc(C(N)=O)cc2)c2ccc(C(=O)O)cc2)ccc2c1OCCC2=O (single isomer, unassigned) [Example 71a, (*R)-4-((4-carbamoylphenyl)((8-methyl-4-oxochroman-7-yl)oxy)methyl)benzoic acid]	> 15000	1600	1500	–	–
Cc1c(O[C@@H](c2ccc(C(N)=O)cc2)c2ccc(C(=O)O)cc2)ccc2c1OCCC2=O (single isomer, unassigned) [Example 71b, (*S)-4-((4-carbamoylphenyl)((8-methyl-4-oxochroman-7-yl)oxy)methyl)benzoic acid]	> 15000	930	200	–	–
CN(C)C(=O)c1ccc([C@@H](Oc2ccc3c(c2)OCCC3=O)c2ccncc2)cc1 (single isomer, unassigned) [Example 72a, (*R)—N,N-dimethyl-4-(((4-oxochroman-7-yl)oxy)(pyridin-4-yl)methyl)benzamide]	9900	840	6300	–	–
CN(C)C(=O)c1ccc([C@H](Oc2ccc3c(c2)OCCC3=O)c2ccncc2)cc1 (single isomer, unassigned) [Example 72b, (*S)—N,N-dimethyl-4-(((4-oxochroman-7-yl)oxy)(pyridin-4-yl)methyl)benzamide]	> 15000	690	11000	–	–
CCc1c(O[C@@H](c2ccncc2)c2ccc(C(N)=O)cc2)ccc2c1OCCC2=O (single isomer, unassigned) [Example 73a, (*R)-4-(((8-ethyl-4-oxochroman-7-yl)oxy)(pyridin-4-yl)methyl)benzamide]	8000	540	110	–	–
CCc1c(O[C@H](c2ccncc2)c2ccc(C(N)=O)cc2)ccc2c1OCCC2=O (single isomer, unassigned) [Example 73b, (*S)-4-(((8-ethyl-4-oxochroman-7-yl)oxy)(pyridin-4-yl)methyl)benzamide]	15000	600	710	–	–
CCc1cc2c(cc1O[C@@H](c1ccncc1)c1ccc(C(N)=O)cc1)OCCC2=O (single isomer, unassigned) [Example 74a, (*R)-4-(((6-ethyl-4-oxochroman-7-yl)oxy)(pyridin-4-yl)methyl)benzamide]	2200	550	120	–	–
CCc1cc2c(cc1O[C@H](c1ccncc1)c1ccc(C(N)=O)cc1)OCCC2=O (single isomer, unassigned) [Example 74b, (*S)-4-(((6-ethyl-4-oxochroman-7-yl)oxy)(pyridin-4-yl)methyl)benzamide]	15000	920	1900	–	–
CC(C)c1c(O[C@@H](c2ccncc2)c2ccc(C(N)=O)cc2)ccc2c1OCCC2=O (single isomer, unassigned) [Example 75a, (*R)-4-(((8-isopropyl-4-oxochroman-7-yl)oxy)(pyridin-4-yl)methyl)benzamide]	4700	600	62	–	–
CC(C)c1c(O[C@H](c2ccncc2)c2ccc(C(N)=O)cc2)ccc2c1OCCC2=O (single isomer, unassigned) [Example 75b, (*S)-4-(((8-isopropyl-4-oxochroman-7-yl)oxy)(pyridin-4-yl)methyl)benzamide]	9300	630	180	–	–
CC(C)c1cc2c(cc1O[C@@H](c1ccncc1)c1ccc(C(N)=O)cc1)OCCC2=O (single isomer, unassigned) [Example 76a, (*R)-4-(((6-isopropyl-4-oxochroman-7-yl)oxy)(pyridin-4-yl)methyl)benzamide]	2200	650	320	–	–
CC(C)c1cc2c(cc1O[C@H](c1ccncc1)c1ccc(C(N)=O)cc1)OCCC2=O (single isomer, unassigned) [Example 76b, (*S)-4-(((6-isopropyl-4-oxochroman-7-yl)oxy)(pyridin-4-yl)methyl)benzamide]	15000	1000	3100	–	–
COc1cc(O[C@@H](c2ccncc2)c2ccc(C(N)=O)cc2)cc2c1C(=O)CCO2 (single isomer, unassigned) [Example 77a, (*R)-4-(((5-methoxy-4-oxochroman-7-yl)oxy)(pyridin-4-yl)methyl)benzamide]	> 15000	1700	9100	–	–
COc1cc(O[C@H](c2ccncc2)c2ccc(C(N)=O)cc2)cc2c1C(=O)CCO2 (single isomer, unassigned) [Example 77b, (*S)-4-(((5-methoxy-4-oxochroman-7-yl)oxy)(pyridin-4-yl)methyl)benzamide]	9900	1500	5500	–	–
N#Cc1c(O[C@@H](c2ccncc2)c2ccc(C(N)=O)cc2)ccc2c1OCCC2=O (single isomer, unassigned) [Example 78a, (*R)-4-(((8-cyano-4-oxochroman-7-yl)oxy)(pyridin-4-yl)methyl)benzamide]	9900	470	2300	–	–
